SMILES strings stand for the structures. Structures can show the parent of a compound that is named as a salt.

The target in data set [1] is Human or Rat Histamine H3 Receptor (UniProt Q9Y5N1). Kind of data set: Binding assay for human or rat histamine H3 receptor ([3H] R-α-methylhistamine displacement). The settings on record: [3H] R-α-methylhistamine 3.0 nM, rat brain frontal cortex or recombinant human receptor in CHO cells (source for table not stated). As for the experimental part: Binding and Functional Assays for Human or Rat Histamine H3 Receptor
Compounds can be evaluated according to the following procedures.
• Receptor source: Rat brain frontal cortex or recombinant human cDNA expressed in CHO cells • Radioligand: [^3H] R-α-methylhistamine • Final ligand concentration—[3.0 nM] • Non-specific determinant: R-α-methylhistamine (100 μM) • Reference compound: R-α-methylhistamine • Positive control: R-α-methylhistamine Incubation Conditions:
Increasing concentrations of test compounds or standard were incubated with membrane receptors and radioligand in 5 mM MgCl2 and 50 mM TRIS-HCl (pH 7.4) for 60 minutes at room temperature. The reaction was terminated by rapid vacuum filtration onto the glass fiber filters. Radioactivity trapped onto the filters was determined and compared to the control values in order to ascertain any interactions of the test compound(s) with either cloned human or rat receptor binding site.

A short description of data set [2]: Rodent pharmacokinetic study. It counts as in vivo. Particulars: rat, whole blood, Wistar rats/Male; for AUC(0-t) / Cmax / Tmax / half-life: blood; for bioavailability: 3 mg/kg Per-Oral vs 1 mg/kg Intravenous. As for the experimental part:
Male Wistar rats (230-280 grams) were used as experimental animals. Three to five animals were housed in each cage. One day prior to dosing day, male wistar rats (225-250 grams) were anesthetized with isoflurane for surgical placement of jugular vein catheter. Animals were kept fasted over night and maintained on a 12 hours light/dark cycle. Three rats were dosed with compounds of formula (I) orally (3 mg/Kg) and intravenously (1 mg/kg) in two separate set of animals (n=3 rats/group). At each time point, blood was collected by jugular vein. Blood was stored frozen at […] until analysis. The concentrations of the compounds of formula (I) in blood were determined using LC-MS/MS method. Schedule time points: Pre dose 0.08 (only for i.v.) 0.25, 0.5, 1, 2, 4, 6, 8, and 24 hours after dosing (n=3). The compounds of formula (I) were quantified in blood by validated LC-MS/MS method using acetonitrile precipitation technique. The compounds of formula (I) were quantified in the calibration range of 1-1000 ng/mL in blood. Study samples were analyzed using calibration samples in the batch and quality control samples spread across the batch. Pharmacokinetic parameters Cmax, Tmax, AUCt, T1/2 and Bioavailability were calculated by non-compartmental model using software Pheonix WinNonlin version 6.0.1.

Data set [3] is described as follows: Rodent brain penetration study. Format: in vivo, Male Wistar rats. Particulars: Wister rats/Male, 3 mg/kg, Per-oral; for Kp at 1 h: male, Wistar, rat, brain homogenate / whole blood, po, 1 h post dose, read-out: Brain Penetration @ 1 h post dose (Cbrain/Cblood). Here is the method:
Male Wistar rats (230-280 grams) were used as experimental animals. Three animals were housed in each cage. Animals were given water and food ad libitum throughout the experiment and maintained on a 12 hours light/dark cycle. Brain penetration was determined in discrete manner in rats. One day prior to dosing day, male wistar rats (225-250 grams) were acclimatized. After acclimatization, the rats were grouped according to the weight in each group, 3 animals were kept in individual cage and allowed free access to food and water. At each time point (05, 1, and 2 hrs) n=3 animals were used. The compounds of formula (I) were dissolved in water and administered orally at (free base) 3 mg/kg. Blood samples were removed via, cardiac puncture by using light ether anesthesia the animals were sacrificed to collect brain tissue. Brain samples were homogenized and stored frozen at −20° C. until analysis. The concentrations of the compounds of formula (I) in blood and brain were determined using LC-MS/MS method. The compounds of formula (I) were quantified in blood and brain homogenate by validated LC-MS/MS method using acetonitrile precipitation technique. The compounds of formula (I) were quantified in the calibration range of 1-1000 ng/mL in blood and brain homogenate. Study samples were analyzed using calibration samples in the batch and quality control samples spread across the batch. Extents of brain to blood ratios were calculated (Cbrain/Cblood).

The test system of data set [4] is Male Wister rats. As to the kind of experiment: Object recognition task model. Format: in vivo. Particulars: 1 mg/kg, p.o. As for the experimental part: The cognition enhancing properties of compounds of this invention were estimated using a model of animal cognition: the object recognition task model.
Male Wister rats (230-280 grams) were used as experimental animals. Four animals were housed in each cage. Animals were kept on 20% food deprivation before one day and given water ad libitum throughout the experiment and maintained on a 12 hours light/dark cycle. Also the rats were habituated to individual arenas for 1 hour in the absence of any objects.
One group of 12 rats received vehicle (1 mL/Kg) orally and another set of animals received compound of the formula (I) either orally or i.p., before one hour of the familiar (T1) and choice trial (T2).
The experiment was carried out in a 50×50×50 cm open field made up of acrylic. In the familiarization phase, (T1), the rats were placed individually in the open field for 3 minutes, in which two identical objects (plastic bottles, 12.5 cm height×5.5 cm diameter) covered in yellow masking tape alone (a1 and a2) were positioned in two adjacent corners, 10 cm. from the walls. After 24 hours of the (T1) trial for long-term memory test, the same rats were placed in the same arena as they were placed in T1 trial. Choice phase (T2) rats were allowed to explore the open field for 3 minutes in presence of one familiar object (a3) and one novel object (b) (Amber color glass bottle, 12 cm high and 5 cm in diameter). Familiar objects presented similar textures, colors and sizes. During the T1 and T2 trial, explorations of each object (defined as sniffing, licking, chewing or having moving vibrissae whilst directing the nose towards the object at a distance of less than 1 cm) were recorded separately by stopwatch. Sitting on an object was not regarded as exploratory activity, however, it was rarely observed.
T1 is the total time spent exploring the familiar objects (a1+a2).
T2 is the total time spent exploring the familiar object and novel object (a3+b).
The object recognition test was performed as described by Ennaceur, A., Delacour, J., 1988, A new one-trial test for neurobiological studies of memory in rats—Behavioural data, Behav. Brain Res., 31, 47-59.

By Ki is commonly meant a dissociation constant, usually derived from enzyme kinetics or from competition with a known ligand. What is called AUC(0-t) is exposure summed from dosing to a finite time, without extrapolation to infinity. Higher therefore signals high exposure. As a reminder, the Cmax is the maximum level reached in the sampled fluid or tissue. By Tmax is commonly meant the time from dosing to the highest level. In general, half-life refers to the time in which the quantity being followed falls by half. Lower therefore signals fast loss. By bioavailability is commonly meant the share of a dose that reaches the circulation, judged against a reference dose that is usually intravenous. Read a high bioavailability as much systemic uptake. For `O=C(C=Cc1ccc(OC2CCN(C3CCC3)CC2)cc1)N1CCOCC1.O=C(O)/C=C/C(=O)O` [Example 1, 3-[4-(1-Cyclobutylpiperidin-4-yloxy)phenyl]-1-(morpholin-4-yl)prop-2-ene-1-one fumarate salt], the Ki in data set [1] (fumarate salt) came to 1.32 nM. Moreover, in data set [2] (1 mg/kg, Intravenous), the area under the curve AUC(0-t) is 208 ± 7 ng·h/mL, the Cmax amounted to 214 ± 25 ng/mL, the Tmax is 4.8 min and the half-life was 63 ± 4.2 min. In addition, the bioavailability in data set [2] is 29 ± 2%. In data set [2] (3 mg/kg, Per-Oral), the AUC(0-t) came to 176 ± 10 ng·h/mL, the highest level (Cmax) was 106 ± 5 ng/mL, the Tmax was 30 min and the half-life was 93.6 ± 25.8 min. Further, the “Brain Penetration @ 1 h post dose (Cbrain/Cblood)” value in data set [3] is 1.40. Moreover, the Inference entry in data set [4] is recorded as “Active”. Besides, in data set [4] (choice trial T2), the “Exploration time mean ± S.E.M, Familiar object” value came to 5.96 ± 1.03 s and the “Exploration time mean ± S.E.M, Novel object” value amounted to 14.86 ± 1.92 s.

Regarding `O=C(C=Cc1ccc(OC2CCN(C3CCC3)CC2)cc1)N1CCCCC1` [Example 2, 3-[4-(1-Cyclobutylpiperidin-4-yloxy)phenyl]-1-(piperidin-1-yl)prop-2-ene-1-one hydrochloride salt], the Ki in data set [1] came out at 1.82 nM.

`O=C(C=Cc1ccc(OC2CCN(C3CCC3)CC2)cc1)N1CCS(=O)(=O)CC1` [Example 3, 3-[4-(1-Cyclobutylpiperidin-4-yloxy)phenyl]-1-(1,1-dioxothiomorpholin-4-yl)prop-2-ene-1-one hydrochloride salt]: the Ki in data set [1] worked out at 1.4 nM.

Turning to `O=C(C=Cc1ccc(OC2CCN(C3CCC3)CC2)nc1)N1CCCCC1` [Example 4, 3-[2-(1-Cyclobutylpiperidin-4-yloxy)pyridin-5-yl]-1-(piperidin-1-yl)prop-2-ene-1-one L(+)-Tartarate salt], the inhibitory constant (Ki) in data set [1] is 7.82 nM.

For the compound `CC(C)N1CCC(Oc2ccc(C=CC(=O)N3CCOCC3)c(F)c2)CC1` [Example 6, 3-[2-Fluoro-4-(1-isopropylpiperidin-4-yloxy)phenyl]-1-(morpholin-4-yl)prop-2-ene-1-one L(+)-Tartarate salt], the Ki in data set [1] stood at 17.5 nM.

On to `O=C(C=Cc1ccc(OC2CCN(C3CCC3)CC2)cc1F)N1CCOCC1.O=C(O)C(O)C(O)C(=O)O` [Example 7, 3-[2-Fluoro-4-(1-cyclobutylpiperidin-4-yloxy)phenyl]-1-(morpholin-4-yl)prop-2-ene-1-one L(+)-Tartarate salt], for which the Ki in data set [1] stood at 2.96 nM. Also, in data set [2] (1 mg/kg, Intravenous), the AUC(0-t) was 167 ± 47 ng·h/mL, the highest level (Cmax) was 311 ± 110 ng/mL, the time of peak concentration (Tmax) came out at 4.8 min and the half-life was 36 ± 12 min. This compound also gave a bioavailability in data set [2] of 9 ± 5%. Also, in data set [2] (3 mg/kg, Per-Oral), the AUC(0-t) is 49 ± 29 ng·h/mL, the Cmax was found to be 57 ± 36 ng/mL, the Tmax was found to be 15 min and the half-life was 54 ± 36 min. The Kp at 1 h in data set [3] amounted to 2.51.

For `Cc1cc(OC2CCN(C3CCC3)CC2)ccc1C=CC(=O)N1CCOCC1` [Example 8, 3-[4-(1-Cyclobutylpiperidin-4-yloxy)-2-methylphenyl]-1-(morpholin-4-yl)prop-2-ene-1-one L(+)-Tartarate salt], the Ki in data set [1] was determined as 6.34 nM.

Regarding `Cc1cc(OC2CCN(C(C)C)CC2)ccc1C=CC(=O)N1CCOCC1` [Example 9, 3-[4-(1-Isopropylpiperidin-4-yloxy)-2-methylphenyl]-1-(morpholin-4-yl)prop-2-ene-1-one L(+)-Tartarate salt], the Ki in data set [1] turned out to be 13.1 nM.

In the case of `O=C(C=Cc1ccc(OC2CCN(C3CCC3)CC2)cc1)N1CCOCC1.O=C(O)C(O)C(O)C(=O)O` [Example 10, 3-[4-(1-Cyclobutylpiperidin-4-yloxy)phenyl]-1-(morpholin-4-yl)prop-2-ene-1-one L(+)-Tartarate salt], the Ki in data set [1] came to 3.43 nM. Moreover, in data set [2] (1 mg/kg, Intravenous), the area under the curve AUC(0-t) came to 222 ± 33 ng·h/mL, the concentration peaked (Cmax) at 285 ± 46 ng/mL, the Tmax is 4.8 min and the half-life is 48 ± 3 min. This compound also had a bioavailability in data set [2] of 58 ± 6%. For the same compound, in data set [2] (3 mg/kg, Per-Oral), the AUC(0-t) was 387 ± 38 ng·h/mL, the peak level (Cmax) was 290 ± 32 ng/mL, the Tmax was 15 min and the half-life is 51 ± 8.4 min. For the same compound, the Kp at 1 h in data set [3] stood at 1.36.

With `COc1cc(C=CC(=O)N2CCOCC2)ccc1OC1CCN(C2CCC2)CC1` [Example 11, 3-[4-(1-Cyclobutylpiperidin-4-yloxy)-3-methoxyphenyl]-1-(morpholin-4-yl)prop-2-ene-1-one L(+)-Tartarate salt], the Ki in data set [1] was 77.2 nM.

Consider `CC(C)CN1CCC(Oc2ccc(C=CC(=O)N3CCOCC3)cc2)CC1` [Example 18, 3-[4-(1-Isobutylpiperidin-4-yloxy)phenyl]-1-(morpholin-4-yl)prop-2-ene-1-one], for which the Ki in data set [1] turned out to be 32.4 nM.

`CC(C)N1CCC(Oc2ccc(C=CC(=O)N3CCOCC3)cc2Br)CC1` [Example 19, 3-[3-Bromo-4-(1-isopropylpiperidin-4-yloxy)phenyl]-1-(morpholin-4-yl)prop-2-ene-1-one]: the Ki in data set [1] came to 17 nM.

In the case of `O=C(C=Cc1ccc(OC2CCN(C3CCC3)CC2)c(Br)c1)N1CCOCC1` [Example 20, 3-[3-Bromo-4-(1-cyclobutylpiperidin-4-yloxy)phenyl]-1-(morpholin-4-yl)prop-2-ene-1-one], the Ki in data set [1] was 5.97 nM.

For the compound `O=C(C=Cc1ccc(OC2CCN(CC3CC3)CC2)c(Br)c1)N1CCOCC1` [Example 22, 3-[3-Bromo-4-(1-cyclopropylmethylpiperidin-4-yloxy)phenyl]-1-(morpholin-4-yl)prop-2-ene-1-one], the Ki in data set [1] stood at 52.6 nM.

Take `O=C(C=Cc1ccc(OC2CCN(C3CCC3)CC2)cc1Cl)N1CCOCC1` [Example 25, 3-[2-Chloro-4-(1-cyclobutylpiperidin-4-yloxy)phenyl]-1-(morpholin-4-yl)prop-2-ene-1-one]: in data set [1], the Ki was 29.7 nM.
